Calls of active or inactive are those of the source. No cut-off for these calls is given here.
Experiments:
[1] = test system: HepG2; assay: Disruption of mitochondrial membrane potential in human HepG2 cells at 20 uM after 24 hrs by Rhodamine123 staining-based flow cytometry; assay type: functional, cell-based
[2] = test system: SMMC-7721; assay: Cytotoxicity against human SMMC7721 cells assessed as cell growth inhibition after 48 hrs by MTT assay; assay type: functional, cell-based; conditions: SMMC-7721, 48 h
[3] = test system: SMMC-7721; assay: Cytotoxicity against human SMMC7721 cells assessed as reduction in cell viability up to 20 uM after 24 to 72 hrs by MTT assay; assay type: functional, cell-based
[4] = test system: HepG2; assay: Induction of apoptosis in human HepG2 cells assessed as late apoptotic cells at 20 uM after 24 hrs by Annexin V-FITC/propidium iodide staining based flow cytometric analysis (reference value: 8.96 %); assay type: functional
[5] = test system: SMMC-7721; assay: Effect on putrescine levels in human SMMC7721 cells at 20 uM after 24 hrs by HPLC analysis; assay type: functional, cell-based
[6] = Cytotoxicity against human QSG7701 cells assessed as cell growth inhibition after 48 hrs by MTT assay; assay type: cell-based; conditions: QSG7701, 48 h
[7] = test system: SMMC-7721; assay: Effect on ODC expression in human SMMC7721 cells at 5 to 20 uM after 24 hrs by Western blot analysis; assay type: functional, cell-based
[8] = Drug uptake in human SMMC7721 cells assessed as PAT-mediated cellular uptake after 8 hrs by HCS analysis; assay type: ADME, cell-based
[9] = test system: HepG2; assay: Induction of ROS generation in human HepG2 cells assessed as depletion of GSH content at 20 uM after 24 hrs by GSSG assay; assay type: functional, cell-based
[10] = test system: HepG2; assay: Induction of p53 expression in human HepG2 cells up to 20 uM after 24 hrs by Western blot analysis relative to control; assay type: functional, cell-based
[11] = Drug uptake in human HepG2 cells assessed as PAT-mediated compound uptake by measuring fluorescent intensity at 5 to 10 uM after 6 hrs in presence of spermidine by HCS analysis; assay type: ADME, cell-based
[12] = test system: SMMC-7721; assay: Antiproliferative activity against human SMMC7721 cells assessed as reduction in cell viability at 20 uM pre-treated with NAC after 48 hrs by MTT assay; assay type: functional, cell-based
[13] = test system: SMMC-7721; assay: Induction of intracellular ROS generation in human SMMC7721 cells at 20 uM after 8 hrs by DCFH-DA staining based HCS analysis relative to control; assay type: functional
[14] = test system: HepG2; assay: Disruption of mitochondrial membrane potential in human HepG2 cells at 20 uM after 24 hrs by JC-1 staining based flow cytometry; assay type: functional, cell-based
[15] = test system: HepG2; assay: Induction of apoptosis in human HepG2 cells assessed as upregulation of cleaved caspase 3 after 24 hrs by immunofluorescence analysis; assay type: functional, cell-based
[16] = Drug localization in human HepG2 cell nucleus at 10 uM after 8 hrs by propidium iodide-staining based microscopic analysis; assay type: ADME
[17] = test system: HepG2; assay: Induction of apoptosis in human HepG2 cells assessed as up-regulation of caspase 3 expression up to 20 uM after 24 hrs by Western blot analysis; assay type: functional, cell-based
[18] = test system: SMMC-7721; assay: Antiproliferative activity against human SMMC7721 cells assessed as reduction in cell viability at 20 uM pre-treated with CAT after 48 hrs by MTT assay; assay type: functional, cell-based
[19] = test system: HepG2; assay: Induction of ROS generation in human HepG2 cells at 20 uM after 24 hrs in presence of CAT by DCFH-DA-staining based HCS analysis; assay type: functional, cell-based
[20] = Drug localization in human HepG2 cell endoplasmic reticulum at 10 uM after 8 hrs by ER tracker-staining based confocal microscopic analysis; assay type: ADME
[21] = test system: HepG2; assay: Induction of apoptosis in human HepG2 cells assessed as viable cells at 20 uM after 24 hrs by Annexin V-FITC/propidium iodide staining based flow cytometric analysis (reference value: 86 %); assay type: functional; conditions: HepG2, 24 h, read-out: Activity
[22] = test system: HepG2; assay: Effect on spermidine levels in human HepG2 cells at 20 uM after 24 hrs by HPLC analysis; assay type: functional, cell-based
[23] = test system: HepG2; assay: Induction of H2O2 production in human HepG2 cells; assay type: functional, cell-based
[24] = Drug localization in human HepG2 cell lysosomes at 10 uM after 8 hrs by Lyso tracker-staining based confocal microscopic analysis; assay type: ADME, Lysosome
[25] = test system: SMMC-7721; assay: Effect on spermine levels in human SMMC7721 cells at 20 uM after 24 hrs by HPLC analysis; assay type: functional, cell-based
[26] = test system: HepG2; assay: Induction of p53 expression in human HepG2 cells up to 20 uM pre-treated with NAC after 24 hrs by Western blot analysis relative to control; assay type: functional, cell-based
[27] = Drug uptake in human SMMC7721 cells assessed as PAT-mediated cellular uptake at 10 uM by HCS analysis; assay type: ADME, cell-based; conditions: TDE = time-dependent effect
[28] = test system: HepG2; assay: Induction of ROS generation in human HepG2 cells at 20 uM after 24 hrs in presence of NAC by DCFH-DA-staining based HCS analysis; assay type: functional, cell-based
[29] = test system: HepG2; assay: Effect on SSAT expression in human HepG2 cells at 5 to 20 uM after 24 hrs by Western blot analysis; assay type: functional, cell-based
[30] = test system: HepG2; assay: Antiproliferative activity against human HepG2 cells assessed as reduction in cell viability at 20 uM pre-treated with CAT after 48 hrs by MTT assay; assay type: functional, cell-based
[31] = test system: HepG2; assay: Antiproliferative activity against human HepG2 cells assessed as reduction in cell viability at 20 uM pre-treated with NAC after 48 hrs by MTT assay; assay type: functional, cell-based
[32] = test system: HepG2; assay: Induction of cleaved caspase 3 expression in human HepG2 cells up to 20 uM pre-treated with NAC measured after 24 hrs by Western blot analysis; assay type: functional, cell-based
[33] = Drug localization in human HepG2 cell golgi apparatus at 10 uM after 8 hrs by Golgi tracker-staining based confocal microscopic analysis; assay type: ADME

Cl.Cl.NCCCCNCCCCN1C(=O)c2cccc3c(-c4cc(=O)c5ccccc5o4)ccc(c23)C1=O
Activity [1]: Active | IC50 [2]: 14.1 µM | Activity [3]: Active | Activity [4]: 26.6% | Activity [5]: inactive | IC50 [6]: > 50 µM | Activity [7]: inactive | Drug uptake [8]: Dose-dependent effect | Activity [9]: Active | Activity [10]: Dose-dependent effect | Drug uptake [11]: Not Active | Activity [12]: inactive | fold change (FC) [13]: 2.2 | Activity [14]: Active | Activity [15]: Dose-dependent effect | Drug uptake [16]: Not Active | Activity [17]: Active | Activity [18]: inactive | Activity [19]: inactive | Drug uptake [20]: Not Active | viability at 20 µM [21]: 37.8% | Activity [22]: inactive | Activity [23]: Active | Drug uptake [24]: Not Active | Activity [25]: inactive | Activity [26]: inactive | Drug uptake [27]: Tde | Activity [28]: inactive | Activity [29]: inactive | Activity [30]: inactive | Activity [31]: inactive | Activity [32]: inactive | Drug uptake [33]: Not Active

Source: ChEMBL document CHEMBL4007412, “Design, Synthesis, and Biological Evaluation of Mitochondria-Targeted Flavone-Naphthalimide-Polyamine Conjugates with Antimetastatic Activity” (J Med Chem, 2017)
